From patent US9328369B2, “Process for production of useful substance, and surfactant for use in the process” (priority 2009, dated 2016) come the findings set out here.

In this test the test system is Escherichia coli(δ). The test can be described thus: Production by secretion in microbial culture system, cellulase expressing strain (Table 5). Type of test: cell-based. Also noted: key to Turbidity: (measured turbidity of diluted culture − blank) × dilution rate. Particulars: for Dried cell density: obtained from turbidity; for Quantitative value of produced recombinant protein: SDS-PAGE. The method, then: A bglC gene of Bacillus licheniformis was amplified by the PCR method using primers 9 and 10 (Table 4). After being treated with restriction enzymes NcoI and BamHI, a PCR amplified fragment was bound to an NcoI restriction enzyme site and a BamHI restriction enzyme site of a pET-22b plasmid (product of Novagen). Then, the plasmid was transformed into a BL21 (DE3) Escherichia coli strain (product of Novagen) to form Escherichia coli […] that expresses cellulase.
Overnight cultures (1 ml) of Escherichia coli (δ) obtained in Production Example 4 and Escherichia coli (ε) obtained in Production Example 5 were respectively prepared as Comparative Example 2 and Comparative Example 4. An amount of 0.5 ml of each was inoculated in 5 ml of an LB culture solution (containing 100 mg/L of ampicillin) and was shake-cultured at 30° C. for 3 hours. In this manner, pre-culture solutions were prepared. The pre-culture solutions were each inoculated in 50 mL of a culture solution (1.2 g of yeast extract (Nihon Pharmaceutical Co., Ltd.), 0.6 g of polypeptone (Nihon Pharmaceutical Co., Ltd.), 0.47 g of dipotassium phosphate, 0.11 g of monopotassium phosphate, 0.35 g of ammonium sulfate, 0.66 g of disodium phosphate 12-hydrate, 0.02 g of sodium citrate dihydrate, 0.2 g of glycerol, 1.5 g of lactalbumin hydrolysate, 0.3 g of a defoaming agent (Shin-Etsu Chemical Co., Ltd., “KM-70”), 1 mM magnesium sulfate, trace metal solution (18.9 μg of calcium chloride, 500 μg of iron chloride (III), 9.0 μg of zinc sulfate heptahydrate, 5.1 μg of copper sulfate, 6.7 μg of manganese chloride tetrahydrate, 4.9 μg of cobalt chloride, 200 μg of ethylene-diamine-tetraacetic acid tetrasodium salt), 100 mg/L ampicillin). Culturing was initiated with use of a microbial culture system (ABLE Corporation, product name “BioJr. 8”), while the pH value and the temperature were maintained at 6.8 and 30° C. After the culturing was initiated, 0.15 mL of 1M IPTG was added. After 14 hours from the initiation of culturing, instillation of a glycerin/protein solution (50% of glycerin, 50 g/L of lactalbumin hydrolysate, a 33 g/L defoaming agent (Shin-Etsu Chemical Co., Ltd., “KM-70”), 100 mg/L ampicillin) was started. The culturing was terminated after 48 hours from the initiation and the culture solution was recovered. The whole protein in the culture solution was analyzed by SDS-PAGE. Based on the obtained amount of the protein band, the recombinant protein was quantified.
The dried cell density at the termination of the culturing was determined by the following processes (1) to (5):
The dried cell density was determined by applying the measuring results in the process (5) and the process (1) and the volume (L) of the culture solution used in the process (2) to the following formula: Dried cell density (g/L)=([measuring result in process (5)]−[measuring result in process (1)])/0.1.
Performance of this processes for several times clarified the proportional relationship between the turbidity of the culture solution and the dried cell density. Therefore, the dried cell density was obtained from the measured turbidity in each of Comparative Examples 2 to 4 and Examples 2 to 14.
The turbidity of a culture solution that is same as the culture solution used in the measurement of the dried cell density was measured using a turbidimeter (Shimadzu Corporation, UV-1700) and 1 ml of quarts cell.
For measurement, the culture solution was diluted in saline to have an appropriate absorbance. The absorbance of the same culture solution (but not containing bacteria) diluted at the same dilution as above was set as a blank. The turbidity of the culture solution was calculated by using the following formula: Turbidity of culture solution=[(measured turbidity of diluted culture solution)−(measured turbidity of blank)]×dilution rate.
The dried cell density and the turbidity of the culture solution were plotted to construct a graph in FIG. 3. […]

Setting [1] is: Examples 2-11, surfactant 1 wt %, at termination of culturing.
The mark [2] stands for this setting: Examples 2-11, surfactant 1 wt %, culturing terminated after 48 hours.
Where [3] appears, read: Comparative Example 3, surfactant 1 wt %, added earlier than in Example 2.
Setting [4] is: Example 13, surfactant 0.1 wt %.

As for Sodium cocaminopropionate [A-7], under setting [1], the “Dried cell density” value was determined as 22.1 g/L. Further, the Turbidity under setting [2] was determined as 78.9.

Regarding “Polyoxyethylene(3 mol)tridecyl ether sodium acetate [A-1]”, the “Dried cell density” value under setting [1] was found to be 12.1 g/L. This compound also displayed a Turbidity under setting [2] of 43.2.

For `CCCCCCCCCCCCCCCC[N+](C)(C)C.[Cl-]` [A-14, Cetyl trimethyl ammonium chloride], the Turbidity is recorded as 1.07 under setting [3] and 5.43 under setting [2]. Besides, the “Dried cell density” value was 0.3 g/L under setting [3] and 1.52 g/L under setting [1]. Further, the “Quantitative value of produced recombinant protein” value reads like this: (Comparative Example 3, surfactant 1 wt %, added earlier than in Example 2, whole protein in culture solution) less than 0.05 g/L; (Examples 2-11, surfactant 1 wt %, supernatant of culture solution) 0.06 g/L.

As to “Cured palm oil fatty acid amidopropyl dimethyl aminoacetate betaine [A-6]”, the Turbidity runs as follows: under setting [4], 75.2; (Example 14, surfactant 5 wt %) 52.1; under setting [2], 70.3. Also, the “Dried cell density” value was found to be 21.1 g/L under setting [4]; 14.6 g/L (Example 14, surfactant 5 wt %); 19.7 g/L under setting [1].
